Assay results from patent publication US20260256870A1, “SKIN COMPOSITION” (Eaderm Co., Ltd., priority 2019, published 2026).
Where a name gives a salt, the structure may show the parent alone. Read-outs that look alike come from different tables or passages of the source.

Assays:
COL17A1 = COL17A1 expression in human epidermal keratinocytes by high content imaging (HCS); assay type: cell-based
Protocol: The present inventors further searched for substances that induce or maintain the expression of COL17A1. Human epidermal keratinocytes were seeded in 384-well plates, cultured for 48 hours after addition of reagents, immunostained with an anti-COL17A1 antibody and a fluorescently labeled secondary antibody, and then the fluorescence intensity per cell was detected using a high content imaging system (HCS: High Content Screening). In addition to cell counting with DAPI, the expression level of COL17A1 was quantified.

[1] = test system: human epidermal keratinocytes; experiment: Colony formation assay using human epidermal keratinocytes; assay type: cell-based
From the text: To test whether COL17A1-mediated SCD maintains clonal proliferation of epidermal stem cell clones, the present inventors used a colony formation assay, which is an in vitro assay said to be the gold standard for assessing the self-renewal ability of epidermal stem cells, including cells in the tail epidermis.

[2] = Table 3, anticancer drugs and molecularly targeted drugs
[3] = Table 1, human epidermal keratinocytes, 48 hours after addition of reagents, fluorescence intensity per cell

For O=c1[nH]c(=O)n(C2CCCO2)cc1F (stereo not drawn) [Tegafur], the “COL17A1 expression level (control ratio)” value (COL17A1; [2]) was 0.90.
O=c1cc(-c2ccc(O)cc2)oc2cc(O)cc(O)c12 [Apigenin] was tested, and the “COL17A1 expression level (control ratio)” value (COL17A1; [3]) was “⊚⊚ (two double circles (⊚⊚) in the COL17A1 expression level (control ratio) represent a 2.0-fold or greater increase in the expression level)”, the “Colony area (control ratio)” value ([1]; Table 1) was “○” and the “Colony number (control ratio)” value ([1]; Table 1) was “○”.
With S=c1nc[nH]c2nc[nH]c12 [Mercaptopurine] the “COL17A1 expression level (control ratio)” value (COL17A1; [2]) was 0.83.
C[C@H]1CNCCCN1S(=O)(=O)c1cccc2cncc(F)c12 [Ripasudil] was tested, and the “COL17A1 expression level (control ratio)” value (COL17A1; [3]) was “⊚⊚ (two double circles (⊚⊚) in the COL17A1 expression level (control ratio) represent a 2.0-fold or greater increase in the expression level)”, the “Colony area (control ratio)” value ([1]; Table 1) was “⊚ (one double circle (⊚) indicates maintenance of 1.0-1.2-fold)” and the “Colony number (control ratio)” value ([1]; Table 1) was “⊚ (one double circle (⊚) indicates maintenance of 1.0-1.2-fold)”.
In the case of COc1ccc(C[C@H](N)C(=O)N[C@H]2[C@@H](O)[C@H](n3cnc4c(N(C)C)ncnc43)O[C@@H]2CO)cc1 [Puromycin hydrochloride], the “COL17A1 expression level (control ratio)” value (COL17A1; [2]) is reported as 0.85.
In the case of CN(C)c1cccc(-c2c3c(=O)n(-c4ccccc4Cl)[nH]c3cc(=O)n2C)c1 [GKT137831], the “COL17A1 expression level (control ratio)” value (COL17A1; [3]) is reported as “○ (one circle (0) represents a 1.0-1.2-fold maintenance)”, the “Colony area (control ratio)” value ([1]; Table 1) is reported as “○” and the “Colony number (control ratio)” value ([1]; Table 1) is reported as “○”.
O=NN(CCCl)C(=O)NCCCl [Carmustine] was tested, and the “COL17A1 expression level (control ratio)” value (COL17A1; [2]) was 0.94.
With CC(=O)O.O=c1[nH]cc(F)c(=O)[nH]1 [Fluorouracil acetate] the “COL17A1 expression level (control ratio)” value (COL17A1; [2]) was 0.88.
In the case of N.N.[Cl][Pt][Cl] [Cisplatin], the “COL17A1 expression level (control ratio)” value (COL17A1; [2]) is reported as 0.97.
With CC(CCc1ccc(O)cc1)NCCc1ccc(O)c(O)c1 (stereo not drawn) [Dobutamine Hydrochloride] the “COL17A1 expression level (control ratio)” value (COL17A1; [3]) was “⊚⊚ (two double circles (⊚⊚) in the COL17A1 expression level (control ratio) represent a 2.0-fold or greater increase in the expression level)”, the “Colony area (control ratio)” value ([1]; Table 1) was “⊚ (one double circle (⊚) indicates maintenance of 1.0-1.2-fold)” and the “Colony number (control ratio)” value ([1]; Table 1) was “⊚ (one double circle (⊚) indicates maintenance of 1.0-1.2-fold)”.
In the case of N=C(N)NN [Aminoguanidine], the “COL17A1 expression level (control ratio)” value (COL17A1; [3]) is reported as “○ (one circle (0) represents a 1.0-1.2-fold maintenance)”, the “Colony area (control ratio)” value ([1]; Table 1) is reported as “○” and the “Colony number (control ratio)” value ([1]; Table 1) is reported as “○”.
With Clc1ccc(C(c2ccccc2Cl)C(Cl)Cl)cc1 (stereo not drawn) [Mitotane] the “COL17A1 expression level (control ratio)” value (COL17A1; [2]) was 0.98.
With CCCCOc1ccc(CC(=O)NO)cc1 [Bufexamac] the “COL17A1 expression level (control ratio)” value (COL17A1; [3]) was “⊚ (one double circle (⊚) represents a 1.2-fold or greater increase)”.
C=C1C[C@@H]2[C@H](CC[C@]3(C)C(=O)CC[C@@H]23)[C@@]2(C)C=CC(=O)C=C12 [Exemestane] was tested, and the “COL17A1 expression level (control ratio)” value (COL17A1; [2]) was 0.93.
CN(C)/N=N/c1[nH]cnc1C(N)=O [Dacarbazine] was tested, and the “COL17A1 expression level (control ratio)” value (COL17A1; [2]) was 0.94.
For C[C@H]1C[C@H]2[C@@H]3CCC4=CC(=O)C=C[C@]4(C)[C@@]3(F)[C@@H](O)C[C@]2(C)[C@@]1(O)C(=O)CO [Bethamethazone], the “COL17A1 expression level (control ratio)” value (COL17A1; [3]) was “⊚⊚ (two double circles (⊚⊚) in the COL17A1 expression level (control ratio) represent a 2.0-fold or greater increase in the expression level)”.
In the case of Clc1ccccc1C(c1ccccc1)(c1ccccc1)n1ccnc1 [Clotrimazole], the “COL17A1 expression level (control ratio)” value (COL17A1; [3]) is reported as “⊚ (one double circle (⊚) represents a 1.2-fold or greater increase)”.
In the case of O=c1c2ccccc2[se]n1-c1ccccc1 [Ebselen], the “COL17A1 expression level (control ratio)” value (COL17A1; [3]) is reported as “⊚ (one double circle (⊚) represents a 1.2-fold or greater increase)”, the “Colony area (control ratio)” value ([1]; Table 1) is reported as “⊚ (one double circle (⊚) indicates maintenance of 1.0-1.2-fold)” and the “Colony number (control ratio)” value ([1]; Table 1) is reported as “⊚ (one double circle (⊚) indicates maintenance of 1.0-1.2-fold)”.
For NC(=O)NO [Hydroxyurea], the “COL17A1 expression level (control ratio)” value (COL17A1; [2]) was 0.92.
With Helenin the “COL17A1 expression level (control ratio)” value (COL17A1; Table 2, human epidermal keratinocytes, 48 hours after addition of reagents) was “⊚⊚ (two double circles (⊚⊚) in the COL17A1 expression level (control ratio) represent a 2.0-fold or greater increase in the expression level)”, the “Colony area (control ratio)” value ([1]; Table 2) was “⊚ (one double circle (⊚) indicates maintenance of 1.0-1.2-fold)” and the “Colony number (control ratio)” value ([1]; Table 2) was “⊚ (one double circle (⊚) indicates maintenance of 1.0-1.2-fold)”.
For COc1ccc2c(c1)c(CC(=O)OCC(=O)O)c(C)n2C(=O)c1ccc(Cl)cc1 [Acemetacin], the “COL17A1 expression level (control ratio)” value (COL17A1; [3]) was “⊚ (one double circle (⊚) represents a 1.2-fold or greater increase)”.
With O=C(O)c1cccnc1Nc1cccc(C(F)(F)F)c1 [Niflumic Acid] the “COL17A1 expression level (control ratio)” value (COL17A1; [3]) was “⊚ (one double circle (⊚) represents a 1.2-fold or greater increase)”.
With COc1ccc(-c2cc(C(F)F)nn2-c2ccc(S(N)(=O)=O)cc2)cc1F [Deracoxib] the “COL17A1 expression level (control ratio)” value (COL17A1; [3]) was “⊚ (one double circle (⊚) represents a 1.2-fold or greater increase)”.
In the case of CC(CN(C)C)CN1c2ccccc2CCc2ccccc21 (stereo not drawn) [Trimipramine Maleate], the “COL17A1 expression level (control ratio)” value (COL17A1; [3]) is reported as “⊚⊚ (two double circles (⊚⊚) in the COL17A1 expression level (control ratio) represent a 2.0-fold or greater increase in the expression level)”, the “Colony area (control ratio)” value ([1]; Table 1) is reported as “⊚ (one double circle (⊚) indicates maintenance of 1.0-1.2-fold)” and the “Colony number (control ratio)” value ([1]; Table 1) is reported as “⊚ (one double circle (⊚) indicates maintenance of 1.0-1.2-fold)”.
In the case of CCC(=O)O[C@H]1CC[C@H]2[C@@H]3CCC4=CC(=O)CC[C@]4(C)[C@H]3CC[C@]12C [Testosterone propionate], the “COL17A1 expression level (control ratio)” value (COL17A1; [2]) is reported as 0.84.
In the case of CCCCc1oc2ccccc2c1C(=O)c1cc(I)c(OCCN(CC)CC)c(I)c1 [Amiodarone Hydrochloride], the “COL17A1 expression level (control ratio)” value (COL17A1; [3]) is reported as “⊚⊚ (two double circles (⊚⊚) in the COL17A1 expression level (control ratio) represent a 2.0-fold or greater increase in the expression level)”, the “Colony area (control ratio)” value ([1]; Table 1) is reported as “○” and the “Colony number (control ratio)” value ([1]; Table 1) is reported as “⊚ (one double circle (⊚) indicates maintenance of 1.0-1.2-fold)”.
For C[C@]12C=CC(=O)C=C1CC[C@H]1[C@@H]3C[C@@H](O)[C@](O)(C(=O)CO)[C@@]3(C)C[C@H](O)[C@@]12F [Triamcinolone], the “COL17A1 expression level (control ratio)” value (COL17A1; [3]) was “⊚ (one double circle (⊚) represents a 1.2-fold or greater increase)”.
For Cc1c(Cl)cccc1Nc1ccccc1C(=O)O [Tolfenamic Acid], the “COL17A1 expression level (control ratio)” value (COL17A1; [3]) was “⊚ (one double circle (⊚) represents a 1.2-fold or greater increase)”.
With C[C@H]1[C@@H](O)O[C@@H]2O[C@@]3(C)CC[C@H]4[C@H](C)CC[C@@H]1[C@@]24OO3 [Artenimol] the “COL17A1 expression level (control ratio)” value (COL17A1; [3]) was “⊚ (one double circle (⊚) represents a 1.2-fold or greater increase)”.
CC/C(=C(\c1ccccc1)c1ccc(OCCN(C)C)cc1)c1ccccc1 [Tamoxifen citrate] was tested, and the “COL17A1 expression level (control ratio)” value (COL17A1; [2]) was 0.78.
For Toremiphene citrate, the “COL17A1 expression level (control ratio)” value (COL17A1; [2]) was 0.94.
Nc1nc(F)nc2c1ncn2[C@@H]1O[C@H](COP(=O)(O)O)[C@@H](O)[C@@H]1O [Fludarabine phosphate] was tested, and the “COL17A1 expression level (control ratio)” value (COL17A1; [2]) was 0.90.
For CN1C(C(=O)Nc2ccccn2)=C(O)c2sccc2S1(=O)=O [Tenoxicam], the “COL17A1 expression level (control ratio)” value (COL17A1; [3]) was “⊚ (one double circle (⊚) represents a 1.2-fold or greater increase)”.
O=P1(N(CCCl)CCCl)NCCCO1 (stereo not drawn) [Cyclophosphamide hydrate] was tested, and the “COL17A1 expression level (control ratio)” value (COL17A1) was 0.88.
For COc1cccc(-c2cc(=O)c3ccccc3o2)c1N [PD98059], the “COL17A1 expression level (control ratio)” value (COL17A1; [2]) was 0.84.
In the case of Monensin Sodium, the “COL17A1 expression level (control ratio)” value (COL17A1; [3]) is reported as “⊚ (one double circle (⊚) represents a 1.2-fold or greater increase)”.
For O=P1(NCCCl)OCCCN1CCCl (stereo not drawn) [Ifosfamide], the “COL17A1 expression level (control ratio)” value (COL17A1; [2]) was 0.84.
With Nc1ccn([C@@H]2O[C@H](CO)[C@@H](O)C2(F)F)c(=O)n1 [Gemcitabine] the “COL17A1 expression level (control ratio)” value (COL17A1; [2]) was 0.96.
For Cn1nnc2c(C(N)=O)ncn2c1=O [Temozolomide], the “COL17A1 expression level (control ratio)” value (COL17A1; [2]) was 0.98.
